What was measured:
[1] = Cure index (set-off cure test, sum of DL values); conditions: Offset Black Ink 1; ketocoumarin 5.10% in Inventive PI Blend 1; ~32 mJ per pass, 100 m/min; lower is superior cure
Method: Offset Black Ink 1—based on a urea-formaldehyde resin, trifunctional acrylate and approximately 13% carbon black pigment.
(§1) The inks were printed onto a carton board substrate (Incada Exel coated board from Iggesund) to a density of approximately 1.8-2.0 using an IGT C1 print proofer. These were cured at 100 m/min using a Primarc UV rig fitted with a single 300 W/inch medium pressure mercury lamp, operating at half power (˜32 mJ per pass). The number of passes required to cure was measured by a “set-off cure test” which is done by visually comparing the extent to which after each pass the ink has transferred to a piece of blank substrate under 10 tons pressure for 5 seconds. […] The amount of set-off is then measured using color computer software, which determines the average color density of the set-off ink compared to a blank piece of substrate. The amount of set-off is measured as the lightness “DL” of the blank substrate vs. the transferred ink film, measured using a Spectraflash 650 spectrophotometer. The DL value is measured for each pass of the ink underneath the curing lamp, using a fresh piece of substrate for each pass until the ink is deemed fully cured and there is no visible ink transfer. The cure index is calculated by adding the individual DL values and rounding the sum to the nearest whole number. For example, if 4 passes under the curing lamp was required to cure a given ink film, and the DL values for the first 3 passes were 8.89, 5.27, 2.15 respectively, then the sum of the figures would be 16.31, which would be rounded to a cure index of 16. Note that there is no DL value taken after the 4th pass, as the ink film was determined to be fully cured by the visual absence of ink transferred during the set-off cure test. […] The tables below show the results for the evaluations.

[2] = Cure index (set-off cure test, sum of DL values); conditions: Offset Black Ink 2; ketocoumarin 5.10% in Inventive PI Blend 2; ~32 mJ per pass, 100 m/min; lower is superior cure
Excerpt: Offset Black Ink 2—based on a ketone functional resin, tri- and tetra-functional alkoxylated acrylates and approximately 14% carbon black pigment.
as §1

[3] = Cure index (set-off cure test, sum of DL values); conditions: Offset Black Ink 3; ketocoumarin 6.000% in Inventive PI Blend 3; ~32 mJ per pass, 100 m/min; lower is superior cure
Excerpt: Offset Black Ink 3—based on a ketone functional resin, tri- and tetra-functional alkoxylated acrylates and approximately 14% carbon black pigment.
as §1

[4] = Solubility by visual inspection of ink and prints; type: physicochemical; parameters: key: Good=Soluble (no solid bits in the ink and good printability); OK=Partially insoluble (some solid bits in the ink and slightly poor printability); Poor=Very noticeable insolubility (very noticeable solid bits in the ink and poor printability); conditions: visual inspection of inks and prints
Method: The solubility of the materials was assessed by visual inspection of the inks and from visual inspection of the prints. Insolubility is reported as follows: Good=Soluble (no solid bits in the ink and good printability); OK=Partially insoluble (some solid bits in the ink and slightly poor printability); Poor=Very noticeable insolubility (very noticeable solid bits in the ink and poor printability).

[5] = Cure index of ink-jet magenta inks; conditions: ketocoumarin 6.167% in Inventive Ink-Jet PI Blend, 84 mJ per pass, 70 m/min, rounded to nearest 0.5
Method: Magenta ink-jet inks were prepared to assess the performance of the inventive ketocoumarin materials an ink-jet ink formulation. The magenta ink formulation is based on 17.5% of a magenta pigment concentrate and a blend of difunctional monomers which includes propoxylated neopentylglycol diacrylate, dipropyleneglycol diacrylate, tripropylene glycol diacrylate (all at approximately 15%) and 2-(2-Vinyloxyethoxy)ethyl acrylate (at approximately 20%).
The inks were printed onto white PE TopTrans top-coated label substrate using a No. 2 K-Bar (red). The No. 2 K-bar gives a film thickness of about 12 μm. The inks were cured at 70 m/min using a Primarc UV rig fitted with a single 300 W/inch medium pressure mercury lamp, operating at full power (84 mJ per pass). Cure index was determined using the same cure index test described above for the black offset inks.
The cure index results in Table 12 were determined using the same test method as described for the black offset inks in Tables 7-9 with one exception; in Table 12 the cure index figures were rounded to the nearest 0.5 rather than to the nearest whole number. It should be noted that the cure index numbers are a representation of cure at a relatively low UV lamp dose compared to that used in a commercial application. A commercial application would typically use higher UV lamp dosage and all of the above formulations would perform adequately under these conditions. The experiments have been set up to highlight differences in cure and therefore have been carried out at relatively low cure dose. In the above experiments an ink with a cure index of less than 4-5 would cure adequately using commercial lamp conditions. Inks with a cure index of much lower than 4-5 are, therefore, performing very well.

Compound	Cure index [1]	Cure index [2]	Cure index [3]	Solubility in Ink-Jet Magenta Ink [4]	Solubility in Offset Black Ink 1 [4]	Solubility in Offset Black Ink 2 [4]	Solubility in Offset Black Ink 3 [4]	Cure index [5]
O=C(c1ccccc1)c1cc2ccccc2oc1=O [Comparative Example 1, reference compound]	28	24	27	Poor	Poor	Poor	Poor	38
COc1ccc2cc(C(=O)c3ccccc3)c(=O)oc2c1 [Comparative Example 2, reference compound]	52	13	33	Poor	Poor	Poor	Poor	<1
O=C(COc1ccc2cc(C(=O)c3ccccc3)c(=O)oc2c1)OCCOCCOC(=O)COc1ccc2cc(C(=O)c3ccccc3)c(=O)oc2c1 [Inventive Example 5]	–	–	–	Good	–	–	–	9
O=C(COc1ccc2cc(C(=O)c3ccccc3)c(=O)oc2c1)OCCOCCOCCOC(=O)COc1ccc2cc(C(=O)c3ccccc3)c(=O)oc2c1 [Inventive Example 11]	53	23	42	OK	OK	OK	OK	1
CCOC(=O)COc1ccc2cc(C(=O)c3ccccc3)c(=O)oc2c1 [Inventive Example 12]	46	15	26	Poor	OK	OK	OK	3
CCC(COC(=O)COc1ccc2cc(C(=O)c3ccccc3)c(=O)oc2c1)(COC(=O)COc1ccc2cc(C(=O)c3ccccc3)c(=O)oc2c1)COC(=O)COc1ccc2cc(C(=O)c3ccccc3)c(=O)oc2c1 [Inventive Example 14]	28	7	14	Poor	OK	OK	OK	1
CCCCCCCCCCCCOC(=O)COc1ccc2cc(C(=O)c3ccccc3)c(=O)oc2c1 [Inventive Example 16]	52	31	56	Poor	OK	OK	OK	5

— patent US9382433B2, “Ketocoumarins as photoinitiators and photosensitizers in printing inks and coatings” (SUN CHEMICAL CORPORATION, priority 2012, dated 2016)
